# Reference: PubChem BioAssay (NCI)
#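 The compound was tested at five concentrations on cells cultured in 96-well plates, with a 48-hour exposure period. At the GI50, growth is halved. TGI marks complete inhibition of growth.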
# Assays:
# Experiment in all cases: NCI tumour cell line growth inhibition, 48 h
# 786-0 renal = test system: 786-0 renal
# A498 renal = test system: A498 renal
# A549 NSCLC = test system: A549 NSCLC
# ACHN renal = test system: ACHN renal
# BT-549 breast = test system: BT-549 breast
# CAKI-1 renal = test system: CAKI-1 renal
# CCRF-CEM leukemia = test system: CCRF-CEM leukemia
# COLO 205 colon = test system: COLO 205 colon
# DU-145 prostate = test system: DU-145 prostate
# EKVX NSCLC = test system: EKVX NSCLC
# HCC-2998 colon = test system: HCC-2998 colon
# HCT-116 colon = test system: HCT-116 colon
# HCT-15 colon = test system: HCT-15 colon
# HL-60(TB) leukemia = test system: HL-60(TB) leukemia
# HOP-62 NSCLC = test system: HOP-62 NSCLC
# HOP-92 NSCLC = test system: HOP-92 NSCLC
# HS 578T breast = test system: HS 578T breast
# HT29 colon = test system: HT29 colon
# IGROV1 ovarian = test system: IGROV1 ovarian
# K-562 leukemia = test system: K-562 leukemia
# KM12 colon = test system: KM12 colon
# LOX IMVI melanoma = test system: LOX IMVI melanoma
# M14 melanoma = test system: M14 melanoma
# MALME-3M melanoma = test system: MALME-3M melanoma
# MCF7 breast = test system: MCF7 breast
# MDA-MB-231 breast = test system: MDA-MB-231 breast
# MDA-MB-435 = test system: MDA-MB-435
# MOLT-4 leukemia = test system: MOLT-4 leukemia
# NCI-H226 lung = test system: NCI-H226 lung
# NCI-H23 lung = test system: NCI-H23 lung
# NCI-H460 lung = test system: NCI-H460 lung
# NCI-H522 lung = test system: NCI-H522 lung
# NCI/ADR-RES ovarian = test system: NCI/ADR-RES ovarian
# OVCAR-3 ovarian = test system: OVCAR-3 ovarian
# OVCAR-4 ovarian = test system: OVCAR-4 ovarian
# OVCAR-5 ovarian = test system: OVCAR-5 ovarian
# OVCAR-8 ovarian = test system: OVCAR-8 ovarian
# PC-3 prostate = test system: PC-3 prostate
# RPMI-8226 leukemia = test system: RPMI-8226 leukemia
# RXF 393 renal = test system: RXF 393 renal
# SF-268 CNS = test system: SF-268 CNS
# SF-295 CNS = test system: SF-295 CNS
# SF-539 CNS = test system: SF-539 CNS
# SK-MEL-2 melanoma = test system: SK-MEL-2 melanoma
# SK-MEL-28 melanoma = test system: SK-MEL-28 melanoma
# SK-MEL-5 melanoma = test system: SK-MEL-5 melanoma
# SK-OV-3 ovarian = test system: SK-OV-3 ovarian
# SN12C renal = test system: SN12C renal
# SNB-19 CNS = test system: SNB-19 CNS
# SNB-75 CNS = test system: SNB-75 CNS
# SR leukemia = test system: SR leukemia
# SW-620 colon = test system: SW-620 colon
# T-47D breast = test system: T-47D breast
# TK-10 renal = test system: TK-10 renal
# U251 CNS = test system: U251 CNS
# UACC-257 melanoma = test system: UACC-257 melanoma
# UACC-62 melanoma = test system: UACC-62 melanoma
# UO-31 renal = test system: UO-31 renal
compound,measurement,setting,value
C=C(C)[C@@H]1CC[C@]2(C(=O)NCCNCCNCCN)CC[C@]3(C)[C@H](CC[C@@H]4[C@@]5(C)CC[C@H](O)C(C)(C)[C@@H]5CC[C@]43C)[C@@H]12,GI50,786-0 renal,12.4 µM
same,TGI,786-0 renal,25.2 µM
same,GI50,A498 renal,19.6 µM
same,TGI,A498 renal,64.7 µM
same,GI50,A549 NSCLC,4.97 µM
same,TGI,A549 NSCLC,21.4 µM
same,GI50,ACHN renal,12 µM
same,TGI,ACHN renal,27.3 µM
same,GI50,BT-549 breast,15 µM
same,TGI,BT-549 breast,57.5 µM
same,GI50,CAKI-1 renal,5.92 µM
same,TGI,CAKI-1 renal,20.1 µM
same,GI50,CCRF-CEM leukemia,4.55 µM
same,TGI,CCRF-CEM leukemia,78.2 µM
same,GI50,COLO 205 colon,15.9 µM
same,TGI,COLO 205 colon,34.6 µM
same,GI50,DU-145 prostate,14.1 µM
same,TGI,DU-145 prostate,30.1 µM
same,GI50,EKVX NSCLC,10.5 µM
same,TGI,EKVX NSCLC,26.6 µM
same,GI50,HCC-2998 colon,14.1 µM
same,TGI,HCC-2998 colon,29.5 µM
same,GI50,HCT-116 colon,4.4 µM
same,TGI,HCT-116 colon,18.7 µM
same,GI50,HCT-15 colon,11.5 µM
same,TGI,HCT-15 colon,26.1 µM
same,GI50,HL-60(TB) leukemia,7.33 µM
same,TGI,HL-60(TB) leukemia,31.2 µM
same,GI50,HOP-62 NSCLC,16.5 µM
same,TGI,HOP-62 NSCLC,33.5 µM
same,GI50,HOP-92 NSCLC,4.61 µM
same,TGI,HOP-92 NSCLC,19.7 µM
same,GI50,HS 578T breast,20.1 µM
same,TGI,HS 578T breast,66.7 µM
same,GI50,HT29 colon,14.6 µM
same,TGI,HT29 colon,34 µM
same,GI50,IGROV1 ovarian,16.1 µM
same,TGI,IGROV1 ovarian,32.5 µM
same,GI50,K-562 leukemia,6.9 µM
same,TGI,K-562 leukemia,> 100 µM
same,GI50,KM12 colon,6.81 µM
same,TGI,KM12 colon,26.2 µM
same,GI50,LOX IMVI melanoma,14.9 µM
same,TGI,LOX IMVI melanoma,28.6 µM
same,GI50,M14 melanoma,11 µM
same,TGI,M14 melanoma,28.7 µM
same,GI50,MALME-3M melanoma,14.6 µM
same,TGI,MALME-3M melanoma,28.4 µM
same,GI50,MCF7 breast,13.2 µM
same,TGI,MCF7 breast,29.3 µM
same,GI50,MDA-MB-231 breast,15.1 µM
same,TGI,MDA-MB-231 breast,37.1 µM
same,GI50,MDA-MB-435,13.4 µM
same,TGI,MDA-MB-435,27.2 µM
same,GI50,MOLT-4 leukemia,11.5 µM
same,TGI,MOLT-4 leukemia,> 100 µM
same,GI50,NCI-H226 lung,15.5 µM
same,TGI,NCI-H226 lung,40.4 µM
same,GI50,NCI-H23 lung,14.7 µM
same,TGI,NCI-H23 lung,32 µM
same,GI50,NCI-H460 lung,14.7 µM
same,TGI,NCI-H460 lung,32 µM
same,GI50,NCI-H522 lung,10.3 µM
same,TGI,NCI-H522 lung,25.4 µM
same,GI50,NCI/ADR-RES ovarian,18.9 µM
same,TGI,NCI/ADR-RES ovarian,59 µM
same,GI50,OVCAR-3 ovarian,12.2 µM
same,TGI,OVCAR-3 ovarian,25.7 µM
same,GI50,OVCAR-4 ovarian,14.1 µM
same,TGI,OVCAR-4 ovarian,33 µM
same,GI50,OVCAR-5 ovarian,18.6 µM
same,TGI,OVCAR-5 ovarian,35 µM
same,GI50,OVCAR-8 ovarian,18.8 µM
same,TGI,OVCAR-8 ovarian,47.1 µM
same,GI50,PC-3 prostate,2.95 µM
same,TGI,PC-3 prostate,18.6 µM
same,GI50,RPMI-8226 leukemia,2.81 µM
same,TGI,RPMI-8226 leukemia,27.6 µM
same,GI50,RXF 393 renal,13.2 µM
same,TGI,RXF 393 renal,27.2 µM
same,GI50,SF-268 CNS,13.5 µM
same,TGI,SF-268 CNS,32.3 µM
same,GI50,SF-295 CNS,13.8 µM
same,TGI,SF-295 CNS,30.3 µM
same,GI50,SF-539 CNS,11.1 µM
same,TGI,SF-539 CNS,23.7 µM
same,GI50,SK-MEL-2 melanoma,16.8 µM
same,TGI,SK-MEL-2 melanoma,37.3 µM
same,GI50,SK-MEL-28 melanoma,16 µM
same,TGI,SK-MEL-28 melanoma,30.6 µM
same,GI50,SK-MEL-5 melanoma,11.1 µM
same,TGI,SK-MEL-5 melanoma,23.4 µM
same,GI50,SK-OV-3 ovarian,17.5 µM
same,TGI,SK-OV-3 ovarian,36.9 µM
same,GI50,SN12C renal,13.5 µM
same,TGI,SN12C renal,33.2 µM
same,GI50,SNB-19 CNS,12.9 µM
same,TGI,SNB-19 CNS,28.2 µM
same,GI50,SNB-75 CNS,11.1 µM
same,TGI,SNB-75 CNS,27.6 µM
same,GI50,SR leukemia,6.76 µM
same,TGI,SR leukemia,> 100 µM
same,GI50,SW-620 colon,14.7 µM
same,TGI,SW-620 colon,34.4 µM
same,GI50,T-47D breast,10.9 µM
same,TGI,T-47D breast,32.3 µM
same,GI50,TK-10 renal,15.8 µM
same,TGI,TK-10 renal,31.3 µM
same,GI50,U251 CNS,12.7 µM
same,TGI,U251 CNS,27.1 µM
same,GI50,UACC-257 melanoma,15.1 µM
same,TGI,UACC-257 melanoma,33.1 µM
same,GI50,UACC-62 melanoma,9.29 µM
same,TGI,UACC-62 melanoma,23 µM
same,GI50,UO-31 renal,11.7 µM
same,TGI,UO-31 renal,24.7 µM
